Data set [1] concerns the target T1, Akt1 (full-length Akt1, active) (Homo sapiens, UniProt P31749).
T1 construct: recombinant full-length human Akt1, containing N-terminal His6 tag; His6 (N); GST (alternative statement of the assay paragraph) (N); purchased Upstate, UK #14-276; host or cells: baculovirus infected Sf21 insect cells
Put plainly: Biochemical Akt1 (active) assay (full-length Akt1), flashplate, Crosstide. To be noted: Crosstide substrate, 100 nM ATP, 60 minutes at 30° C.; read-out: Akt1 inhibition (full-length Akt1, active): IC50. The source says: For the biochemical Akt1 assay recombinant full-length human Akt1, containing N-terminal His6 tag was cloned and expressed in baculovirus infected Sf21 insect cells. Akt1 is activated with GST-MAPKAP-K2 and PDK1, and repurified on Ni2+/NTA-agrose and glutathioneagarose (Upstate, UK; #14-276).
In order to study the inhibition of Akt1 (full-length version) according to the invention, a flashplate-based assay has been developed.
The full-length Akt1 assay is a biochemical assay using Akt1 N-terminally fused to GST and co-expressed with PDK1 in insect cells. The Akt1 assay is run in 96 well plates by incubating 500 ng/well GST-Akt1, 1 μM Crosstide (N-terminally biotinylated synthetic peptide (KGSGSGRPRTSSFAEG) Upstate, #12-385) as substrate, 10 μl of test compound (test compounds were dissolved as 10 mM solutions in dimethylsulfoxide (DMSO) and subsequently diluted) and 100 nM ATP (including ^33P-ATP) in 100 μl of reaction buffer (50 mM HEPES, pH7.5; 3 mM MgCl2; 3 mM MnCl2; 3 μM Na-Orthovanadat; 1 mM DTT; 1 μg/ml PEG8000) for 60 minutes at 30° C. in 96 well microtiter plates. The reactions are terminated by adding 100 μl stopping buffer (5M NaCl, 35 mM EDTA pH 8,0) for 5 minutes. 190 μl of the reaction mixture are transferred into streptavidin-coated Flashplates (Perkin Elmer, #SMP-103) and incubated for further 30 minutes at room temperature. The plates are washed 3 times by using washing buffer (0.9% NaCl). Relying on the incorporation of ^33P into the peptide substrate crosstide, the detection is based on the specific binding of the biotinylated peptide to the streptavidin-coated surface of scintillator-coated flash plates (NEN, USA; #SMP-103). This phosphorylation is measured by counting the plate for 60 sec. using a plate reader (Wallac Microbeta; Perkin Elmer, USA). The analysis of the data is performed using a biostatistical program (GraphPad Prism, USA).

For data set [2], the target named is T2, Akt1 (full-length Akt1, inactive) (Homo sapiens, UniProt P31749).
T2 construct: recombinant full-length human Akt1 a containing N-terminal His6 tag; His6 (N); purchased Upstate, UK #14-279; host or cells: baculovirus infected Sf21 insect cells
T2 sequence (P31749 whole entry): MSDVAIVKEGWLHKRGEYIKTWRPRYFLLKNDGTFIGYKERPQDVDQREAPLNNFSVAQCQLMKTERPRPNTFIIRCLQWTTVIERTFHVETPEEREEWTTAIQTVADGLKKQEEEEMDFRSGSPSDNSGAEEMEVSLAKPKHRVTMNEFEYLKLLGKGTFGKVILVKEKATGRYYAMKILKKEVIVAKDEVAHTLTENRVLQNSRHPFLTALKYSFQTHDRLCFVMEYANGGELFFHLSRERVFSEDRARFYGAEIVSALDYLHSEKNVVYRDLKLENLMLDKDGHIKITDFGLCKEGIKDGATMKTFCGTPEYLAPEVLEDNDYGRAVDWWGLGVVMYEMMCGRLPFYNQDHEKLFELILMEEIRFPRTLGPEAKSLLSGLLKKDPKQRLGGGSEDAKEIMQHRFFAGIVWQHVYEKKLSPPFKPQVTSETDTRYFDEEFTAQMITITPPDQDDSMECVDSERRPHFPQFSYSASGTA
Put plainly: Biochemical Akt1 (inactive) assay (full-length Akt1), IMAP, PDK1-dependent activation. To be noted: activation by PDK1 with PIP3 vesicles, 50 μM ATP, 60 min. at room temperature; read-out: Inhibition of Akt1 activation (full-length Akt1, inactive): IC50. Here is the method: The enzyme is purified using Ni2+/NTA-agarose (Upstate, UK; #14-279).
The enzyme is purified using Ni2+/NTA-agarose.
PDK1-dependent activation and subsequent enzymatic activity of Akt1: Activity of purified human Akt1 is routinely measured in an assay in which the enzyme is first activated by PDK1 in the presence of phosphatidylinositol-3,4,5-triphosphate (PIP3). Once activated, Akt1-dependent phosphorylation of a fluorescence labelled peptide substrate is measured by fluorescence polarisation using the IMAP technology (Molecular Devices).
The phospholipids are prepared as follows: 5 mg DOPC/DOPS are solved in 200 μl 10 mM Tris (pH 7.4) and 300 μg PIP3 are resuspended in 950 μl 10 mM Tris (pH 7.4) by pipetting. 950 μl solved PIP3 are mixed with 50 μl solved DOPC/DOPS and incubated for 2 h at a temperature below 20° C. Then the mixture is subjected to sonification for 30 min. at max. power until a translucent phopholipid vesicle preparation is obtained. Aliquots of the vesicle suspension are frozen at −80° C. until needed, likewise the solved DOPC/DOPS.
Assays are performed in 384-well plates. Incubations are carried out for 60 min. at room temperature. The reaction buffer mixture contains in a final volume of 25 μl: 10 mM Tris pH 7.4, 10 mM MgCl2. 1 mM DTT, and 0,1 mg/ml BSA. In contrast the activation buffer contains: 50 ng/well Akt1, 20 ng/well PDK1, 1.25 μM peptide substrat, 50 μM ATP, and phospholipid vesicles (1:20). Test compounds are added from stock solutions in DMSO before activation of Akt1 by PDK1. After the incubation the beads (IMAP binding reagent; Molecular Devices; 1:167) are added and the fluorescence polarization is measured (excitation 485 nm, emission 530 nm). The analysis of the data is performed using a biostatistical program.

Another data set concerns MCF7 cells. Put plainly: Cellular proliferation/cytotoxicity assay (Alamar Blue), MCF7. It counts as cell-based. The following applies: Homo sapiens; MCF7, 48 hours, Alamar Blue (Resazurin); read-out: Anti-proliferative/cytotoxic activity: IC50 MCF7. As to the method:
(§1) The anti-proliferative activity of the compounds as described herein, is evaluated using MCF7 and MDA-MB-468 (ATCC HTB-22 and HTB-132) cell lines and the Alamar Blue (Resazurin) cell viability assay (O'Brien et al. Eur J Biochem 267, 5421-5426, 2000). Resazurin is reduced to the fluorescent rescrufin by cellular dehydrogenase activity, correlating with viable, proliferating cells. Test compounds are dissolved as 10 mM solutions in DMSO and subsequently diluted. MCF7 or […] cells were seeded into 96 well flat bottom plates at a density of 10000 cells/well (MCF7) or 5000 cells/well (MDA-MB-468) in a volume of 200 μl/well. 24 hours after seeding, 1 μl each of the compound dilutions are added into each well of the 96 well plates. Each compound dilution is tested as at least as duplicates. Wells containing untreated control cells were filled with 200 μl DMEM containing 0.5% v:v DMSO. The cells are then incubated with the substances for 48 hours at 37° C. in a humidified atmosphere containing 5% carbon dioxide. To determine cell viability, 20 μl of a Resazurin solution (Sigma; 90 mg/l) are added. After 4 hours incubation at 37° C. the fluorescence is measured at an extinction of 544 nm and an emission of 590 nm (Wallac Victor2; Perkin Elmer, USA). For the calculation of the cell viability the emission value from untreated cells is set as 100% viability and the emission rates of treated cells are set in relation to the values of untreated cells. Viabilities are expressed as % values. The corresponding IC50 values of the compounds for cytotoxic activity are determined from the concentration-effect curves by means of non-linear regression. The analysis of the data is performed using a biostatistical program (GraphPad Prism, USA).

The test system of another data set is MDA-MB-468 cells. The data set can be described thus: Cellular proliferation/cytotoxicity assay (Alamar Blue), MDA-MB-468. To be noted: Homo sapiens; MDA-MB-468, 48 hours, Alamar Blue (Resazurin); read-out: Anti-proliferative/cytotoxic activity: IC50 MDA468. It is filed as cell-based. As to the method:
as §1
A general note: Resazurin is reduced to fluorescent resorufin, in cell work by metabolically active cells.

Another data set addresses T3, GST-ΔPH-Akt1 (Homo sapiens, UniProt P31749).
T3 construct: named GST-deltaPH-Akt1; 107480aa; cloned in the pAcG1 vector; made in house; host or cells: SF9 insect cells (pAcG1 vector), co-expressed with PDK1
The data set can be described thus: Biochemical ΔPH Akt1 assay (flashplate, 33P-ATP, histone 2B). The following applies: GST-ΔPH-Akt1, histone 2B substrate, 100 nM ATP, 80 minutes at 30° C.; read-out: Akt inhibition: IC50 (inhibition of deltaPHAkt1). The source says:
For the biochemical assay ΔPHAkt1 was used devoid of its PH domain as a GST fusion protein (named GST-deltaPH-Akt1; 107480aa; cloned in the pAcG1 vector (BD Biosciences Pharmingen)), co-expressed with PDK1 in SF9 insect cells. The protein was purified using glutathion-affinity chromatography by standard protocols.
In order to study the inhibition of Akt according to the invention, a flashplate-based assay has been developed.
The Akt1 assay is a biochemical assay using Akt1 devoid of its PH domain and co-expressed with PDK1 in insect cells. The GST-ΔPH-Akt1 assay is run in 96 well plates by incubating 100 ng/well GST-ΔPH-Akt1, 100 ng/well histone 2B (Roche, #223514) as substrate, 10 μl of compound of invention (test compounds were dissolved as 10 mM solutions in dimethylsulfoxide (DMSO) and subsequently diluted) and 100 nM ATP (including ^33P-ATP) in 100 μl of reaction buffer ([…], pH7.5; 3 mM MgCl2; 3 mM MnCl2; 3 μM Na-Orthovanadat; 1 mM DTT; 1 μg/ml PEG8000) for 80 minutes at 30° C. The reactions are terminated by adding 100 μl stopping buffer (2% H3PO4 for 5 minutes) and are washed 3 times by using washing buffer (0.9% NaCl). Relying on the incorporation of ^33P into the protein substrate histone 2B, the detection is based on the adhesion of the phosphorylated protein to the surface of scintillator-coated flash plates (NEN, USA; #SMP-200). This phosphorylation is measured by counting the plate for 60 sec. using a plate reader (Wallac Microbeta; Perkin Elmer, USA). The analysis of the data is performed using a biostatistical program (GraphPad Prism, USA).

The text below walks through data of patent publication US7879853B2, “4,6-disubstituted pyrimidines and their use as protein kinase inhibitors” (Bayer Schering Pharma AG, priority 2004, dated 2011).

pIC50: −log10 of the molar value.

T1 sequence (P31749 whole entry): as above
T3 sequence (P31749 107-480 limits assumed, stated change not applied): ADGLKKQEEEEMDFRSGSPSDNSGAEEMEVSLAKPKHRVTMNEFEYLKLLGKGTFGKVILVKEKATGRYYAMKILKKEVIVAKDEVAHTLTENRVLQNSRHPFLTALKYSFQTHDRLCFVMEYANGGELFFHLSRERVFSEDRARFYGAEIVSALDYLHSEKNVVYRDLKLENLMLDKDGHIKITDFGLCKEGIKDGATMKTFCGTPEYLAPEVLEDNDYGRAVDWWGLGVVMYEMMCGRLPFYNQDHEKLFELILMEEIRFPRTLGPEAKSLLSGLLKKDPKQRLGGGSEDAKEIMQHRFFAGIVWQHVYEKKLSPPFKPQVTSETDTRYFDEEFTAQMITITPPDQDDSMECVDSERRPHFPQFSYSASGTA

One may read the melting point as the temperature, or range, at which the solid turns liquid. On to `NCc1cccc(C(=O)Nc2ccc(Nc3cc(-c4cccc5c4oc4ccccc45)ncn3)cc2)n1` [Compound 73, 6-Aminomethyl-pyridin-2-carbonsäure-[4-(6-dibenzofuran-4-yl-pyrimidin-4-ylamino)-phenyl]-amide], for which the melting point was 183 to 186 °C. For the same molecule, in data set [1], the pIC50 was not below 5.76.
Turning to `NCc1ccc(C(=O)Nc2ccc(Nc3cc(-c4cccc5c4oc4ccccc45)ncn3)cc2)cc1.O=C(O)C(F)(F)F` [Compound 49, 4-Aminomethyl-N-[4-(6-dibenzofuran-4-yl-pyrimidin-4-ylamino)-phenyl]-benzamide trifluoroacetate], the melting point was in the range of 155 to 165 °C. Also, the pIC50 in data set [1] was not below 5.76. Also, in data set [2], the pIC50 was not below 5.36. Besides, the pIC50 in the data set on MCF7 cells was not below 4.78. Further, in the data set with MDA-MB-468 cells, the pIC50 is not below 5.22.
Consider `N=C(N)c1ccc(C(=O)Nc2ccc(Nc3cc(-c4cccc5c4oc4ccccc45)ncn3)cc2)cc1` [Compound 47, 4-Carbamimidoyl-N-[4-(6-dibenzofuran-4-yl-pyrimidin-4-ylamino)-phenyl]-benzamide], for which the pIC50 was not below 4.78 with MCF7 cells and not below 5.22 in the data set on MDA-MB-468 cells.
Molecule `NCc1ccc(C(=O)Nc2cccc(Nc3cc(-c4cccc5c4oc4ccccc45)ncn3)c2)cc1.O=C(O)C(F)(F)F` [Compound 57, 4-Aminomethyl-N-[3-(6-dibenzofuran-4-yl-pyrimidin-4-ylamino)-phenyl]-benzamid trifluoroacetate] came in with a melting point of 114 °C. Also, at GST-ΔPH-Akt1, the pIC50 is not below 5.30. Further, in data set [1], the pIC50 is not below 5.76. The pIC50 in data set [2] is not below 5.36.
For the molecule `O=C(Nc1ccc(Nc2cc(-c3cccc4c3oc3ccccc34)ncn2)cc1)c1ccc(C2CCCNC2)cc1.O=C(O)C(F)(F)F` (centres unmarked) [Compound 52, N-[4-(6-Dibenzofuran-4-yl-pyrimidin-4-ylamino)-phenyl]-4-piperidin-3-yl-benzamide trifluoroacetate], the melting point is 140 to 147 °C. Besides, the pIC50 in the data set on MCF7 cells was not below 4.78. The pIC50 with MDA-MB-468 cells was not below 5.22.
In the same order, the values of `NCc1cccc(C(=O)Nc2ccc(Nc3cc(-c4cccc5c4oc4ccccc45)ncn3)cc2)c1.O=C(O)C(F)(F)F` [Compound 54, 3-Aminomethyl-N-[4-(6-dibenzofuran-4-yl-pyrimidin-4-ylamino)-phenyl]-benzamide trifluoroacetate] are 238 to 240 °C, not below 4.78 and not below 5.22.
`CNCc1ccc(C(=O)Nc2ccc(Nc3cc(-c4cccc5c4oc4ccccc45)ncn3)cc2)cc1.O=C(O)C(F)(F)F` [Compound 63, N-[4-(6-Dibenzofuran-4-yl-pyrimidin-4-ylamino)-phenyl]-4-methylaminomethyl-benzamide trifluoroacetate] came in with a melting point of 130 to 140 °C. For the same molecule, the pIC50 in the data set on MCF7 cells is not below 4.78. Besides, in the data set on MDA-MB-468 cells, the pIC50 is not below 5.22.
As to `O=C(Nc1ccc(Nc2cc(-c3cccc4c3oc3ccccc34)ncn2)cc1)c1ccc2c(c1)CCNC2.O=C(O)C(F)(F)F` [Compound 78, 1,2,3,4-Tetrahydro-isoquinoline-6-carboxylic acid [4-(6-dibenzofuran-4-yl-pyrimidin-4-ylamino)-phenyl]-amide trifluoroacetate], the melting point amounted to 146 °C. The pIC50 on GST-ΔPH-Akt1 is not below 5.30. The pIC50 in the data set on MCF7 cells was not below 4.78. For the same molecule, the pIC50 in the data set on MDA-MB-468 cells is not below 5.22.
`N=C(N)c1cccc(C(=O)Nc2ccc(Nc3cc(-c4cccc5c4oc4ccccc45)ncn3)cc2)c1` [Compound 45, 3-Carbamimidoyl-N-[4-(6-dibenzofuran-4-yl-pyrimidin-4-ylamino)-phenyl]-benzamide] yielded a melting point of 300 to 306 °C. Also, the pIC50 in the data set with MCF7 cells was not below 4.78. For the same molecule, the pIC50 with MDA-MB-468 cells was not below 5.22.
